{
  "source": "patent US20210008137A1",
  "about": "“EXTRACTS OF COPRINUS COMATUS AND THEIR USE FOR REGULATING THE PILOSEBACEOUS UNIT IN A HUMAN” (Symrise AG, priority 2017, published 2021)",
  "system": "human sebaceous glands (hSGs)",
  "test": "Sebum content of ex-vivo cultured human sebaceous glands (lipids/proteins ratio)",
  "assay_type": "cell-based",
  "conditions": "5 μM, positive control; for Sebum content in hSGs, Average as % ratio of the control group: day 6 of organ culture",
  "procedure": "At the end of the culture time, the sebum was extracted and quantified from each experimental group of hSGs and then normalized by the proteins extracted from the residual hSG material (mg lipids/mg proteins). As a result, the biological activity of the tested compounds is inferred by comparing the lipids/proteins ratio of the treated glands with that of the control group. Using micro-scissors and tweezers, hSGs were isolated from the pilosebaceous units of a scalp skin sample. […] After 24 hours of culture the viability of the glands was assessed via resazurin assay and then, having attested their good viability, the culture medium was substituted with the same medium supplemented with experimental extracts, whereas the control group received again the standard medium. The culture medium was renewed every other day. At day six of the organ culture, after having preventively verified the good viability of the hSGs via resazurine assay, each group of hGSs was collected and analyzed for quantifying the sebum content. […] Methods are described in detail in WO2016020339 A8. The amounts of normalized lipids obtained from the treated groups, i.e. the sebum produced by each group of hSGs, were expressed in percentages with respect to the value obtained from the control group, in order to point out the regulatory effect performed by the experimental treatment.",
  "data": [
    {"compound": "COc1cc(CNC(=O)CCCC/C=C/C(C)C)ccc1O", "note": "[capsaicin, Capsaicin]", "values": [
      {"measurement": "Reduction of the sebum content of the hSGs in comparison with the control group", "setting": "Table 6 experiment", "value": 26.5, "unit": "%"},
      {"measurement": "Sebum content in hSGs, Average as % ratio of the control group", "setting": "Table 6 experiment", "value": 73.5, "unit": "%"},
      {"measurement": "Sebum content in hSGs, Average as % ratio of the control group", "setting": "Table 7 experiment", "value": 88.3, "unit": "%"}
    ]}
  ]
}
